The record followed here is patent US8551721B2, “Bioluminescent detection of cyanohydroxy benzothiazole compounds” (Promega Corporation, priority 2008, dated 2013).

Common to all, as to type: biochemical
For assay [1], the target named is T1, UGT 1A4 (Homo sapiens, UniProt P22310).
T1 construct: purchased BD Gentest; host or cells: insect cells (microsomes)
T1 sequence (P22310 29-534): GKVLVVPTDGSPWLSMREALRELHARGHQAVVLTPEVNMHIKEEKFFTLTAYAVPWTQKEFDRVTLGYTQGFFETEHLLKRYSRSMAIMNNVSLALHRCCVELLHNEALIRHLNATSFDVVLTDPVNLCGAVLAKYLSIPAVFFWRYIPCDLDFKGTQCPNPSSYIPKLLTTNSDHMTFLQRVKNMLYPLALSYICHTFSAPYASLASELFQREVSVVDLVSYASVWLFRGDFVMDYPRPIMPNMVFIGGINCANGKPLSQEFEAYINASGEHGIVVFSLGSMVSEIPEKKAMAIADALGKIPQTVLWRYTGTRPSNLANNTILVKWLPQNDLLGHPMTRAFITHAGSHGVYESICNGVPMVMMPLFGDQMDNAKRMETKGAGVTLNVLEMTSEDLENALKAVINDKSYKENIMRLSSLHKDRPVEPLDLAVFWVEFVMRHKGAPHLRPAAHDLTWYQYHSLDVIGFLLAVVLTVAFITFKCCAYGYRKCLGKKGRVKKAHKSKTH
In words: UGT activity: utilization of substrate by recombinant UGT 1A4 Supersomes. To be noted: 2 hour incubation at 37° C., plus vs minus UDPGA. The method, then:
(§1) The invention includes a method of determining activity of the uridine 5′-diphospho-glucuronosyltransferase (UDP-glucuronosyltransferase, or UGT) family enzymes in vitro. Briefly, UGT enzymes from overexpressed insect microsomes (Supersomes™, BD Gentest™) or animal tissue microsomes (Xenotech, BD Gentest™) were incubated with a cyanobenzothiazole substrate of the invention and the cofactor UDP-glucuronic acid (UDPGA) at 37° C. in buffer at physiological pH containing MgCl2 and alamethicin (typically, 50 mM TES, pH 7.5, 8 mM MgCl2, 4 mM UDPGA (Sigma) and 25 μg/mL alamethicin (Sigma)). Following the UGT enzyme reaction, an equal volume of P450-Glo Luciferin Detection Reagent (Promega) containing 15-30 mM D-cysteine-HCl.H2O (Sigma) was added and the plate was mixed and incubated at room temperature, typically for 20-30 minutes. P450-Glo Luciferin Detection Reagent can be prepared by dissolving a vial of Promega Luciferin Detection Reagent (Promega Part #V859B) with a vial of Promega P450-Glo Buffer (Promega Part #V865B).
During this incubation, the cysteine reacts with the cyanobenzathiozole substrate to yield a D-luciferin derivative. […] Therefore, activity of the UGT enzyme can be measured by analyzing the difference (lower or no output) in relative light units (RLU) of a sample in which glucuronidation occurs compared to a sample that was run under the same conditions with no added UDPGA cofactor.
In this example, a series of 12 recombinant UGTs expressed in insect microsomes (Supersomes™, BD Gentest™), as well as the control microsomes not expressing the UGT enzyme, were incubated with compound 3138, compound 3478, or compound 3165 as substrates, with or without the UDPGA co-factor. […]
(§2) Reactions were assembled in a white 96-well plate. […] After the incubation was completed, the plate was read on a Veritas™ luminometer (Turner BioSystems, Inc.; Sunnyvale, Calif.). […]

Assay [2] concerns the target T2, UGT 1A8 (Homo sapiens, UniProt Q9HAW9).
T2 construct: purchased BD Gentest; host or cells: insect cells (microsomes)
T2 sequence (Q9HAW9 26-530): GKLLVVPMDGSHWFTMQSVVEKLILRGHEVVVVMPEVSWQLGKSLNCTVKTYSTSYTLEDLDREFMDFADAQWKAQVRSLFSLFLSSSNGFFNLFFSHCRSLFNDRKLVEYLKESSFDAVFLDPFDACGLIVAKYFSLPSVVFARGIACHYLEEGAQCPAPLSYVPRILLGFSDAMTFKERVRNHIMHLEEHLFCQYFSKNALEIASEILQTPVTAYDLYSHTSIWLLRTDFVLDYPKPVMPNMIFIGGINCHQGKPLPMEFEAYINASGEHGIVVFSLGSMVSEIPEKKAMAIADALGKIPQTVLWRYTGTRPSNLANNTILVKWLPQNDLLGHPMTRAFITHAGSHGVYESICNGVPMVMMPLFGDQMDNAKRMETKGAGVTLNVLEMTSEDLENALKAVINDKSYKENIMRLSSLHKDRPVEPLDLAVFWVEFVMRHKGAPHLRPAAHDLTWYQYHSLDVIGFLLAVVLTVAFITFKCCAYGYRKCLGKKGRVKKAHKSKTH
In words: UGT activity: utilization of substrate by recombinant UGT 1A8 Supersomes. Conditions: 2 hour incubation at 37° C., plus vs minus UDPGA, background corrected. As for the experimental part:
as §1, with “P450-Glo Luciferin Detection Reagent can be prepared by dissolving a vial of Promega Luciferin Detection Reagent (Promega Part #V859B) with a vial of Promega P450-Glo Buffer (Promega Part #V865B).” left out
(§3) During this incubation, the cysteine reacts with the cyanobenzathiozole substrate to yield a D-luciferin derivative. […] Therefore, activity of the UGT enzyme can be measured by analyzing the difference (lower or no output) in relative light units (RLU) of a sample in which glucuronidation occurs compared to a sample that was run under the same conditions with no added UDPGA cofactor. […]
as §2

Assay [3] deals with T3, UGT 1A1 (Homo sapiens, UniProt P22309).
T3 construct: purchased BD Gentest; host or cells: insect cells (microsomes)
T3 sequence (P22309 26-533): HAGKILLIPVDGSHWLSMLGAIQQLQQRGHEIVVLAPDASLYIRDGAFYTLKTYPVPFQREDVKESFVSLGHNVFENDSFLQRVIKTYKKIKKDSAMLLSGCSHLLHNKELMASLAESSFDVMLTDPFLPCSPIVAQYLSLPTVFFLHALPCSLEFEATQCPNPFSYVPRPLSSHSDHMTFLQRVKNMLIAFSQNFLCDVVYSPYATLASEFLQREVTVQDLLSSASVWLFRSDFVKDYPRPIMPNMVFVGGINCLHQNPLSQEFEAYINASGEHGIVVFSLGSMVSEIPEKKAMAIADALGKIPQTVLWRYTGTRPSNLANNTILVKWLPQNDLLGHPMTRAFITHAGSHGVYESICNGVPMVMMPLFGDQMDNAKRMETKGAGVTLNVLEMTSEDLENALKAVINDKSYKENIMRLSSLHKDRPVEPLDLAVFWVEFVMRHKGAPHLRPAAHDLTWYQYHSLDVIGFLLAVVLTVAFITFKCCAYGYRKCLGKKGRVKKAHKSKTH
The assay can be described thus: UGT activity: utilization of substrate by recombinant UGT 1A1 Supersomes. Conditions: 2 hour incubation at 37° C., plus vs minus UDPGA, background corrected. As for the experimental part:
as §1, with “P450-Glo Luciferin Detection Reagent can be prepared by dissolving a vial of Promega Luciferin Detection Reagent (Promega Part #V859B) with a vial of Promega P450-Glo Buffer (Promega Part #V865B).” left out
as §3, §2

On to `Cc1cc(O)cc2sc(C3=NC(C(=O)O)CS3)nc12` (stereo not drawn) [compound 3478], for which the “utilization by UGT 1A4 (in words)” value in assay [1] was “did not utilize either compound 3138 or 3478 to an appreciable extent”. For the same compound, in assay [2], the “% utilization by UGT 1A8” value was not above 15%. In addition, the “% utilization by UGT 1A1” value in assay [3] is listed as not above 15%.

As for `Cc1cc(O)cc2sc(C#N)nc12` [compound 3138], the “utilization by UGT 1A4 (in words)” value in assay [1] is reported as “did not utilize either compound 3138 or 3478 to an appreciable extent”. In addition, in assay [2], the “% utilization by UGT 1A8” value is “over 50%”. Further, the “% utilization by UGT 1A1” value in assay [3] is listed as “over 50%”.
